Data published in PubChem BioAssay (NCI).
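96-well plates; 48 h exposure; 5 concentrations. Endpoints by linear interpolation between flanking doses. Not reached: highest tested concentration assigned. TGI is the concentration that stops growth completely.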

Experiments:
Test in all cases: DTP human tumour cell line panel, 48 h
EKVX NSCLC = test system: EKVX NSCLC
MDA-MB-435 = test system: MDA-MB-435
NCI-H460 lung = test system: NCI-H460 lung
M14 melanoma = test system: M14 melanoma
T-47D breast = test system: T-47D breast
TK-10 renal = test system: TK-10 renal
HOP-62 NSCLC = test system: HOP-62 NSCLC
MDA-N = test system: MDA-N
KM12 colon = test system: KM12 colon
OVCAR-8 ovarian = test system: OVCAR-8 ovarian

Compound	TGI (EKVX NSCLC) [µM]	TGI (MDA-MB-435) [µM]	TGI (NCI-H460 lung) [µM]	TGI (M14 melanoma) [µM]	TGI (T-47D breast) [µM]	TGI (TK-10 renal) [µM]	TGI (HOP-62 NSCLC) [µM]	TGI (MDA-N) [µM]	TGI (KM12 colon) [µM]	TGI (OVCAR-8 ovarian) [µM]
O=C1CCCc2cc3c(cc21)CC1(C3)Cc2ccc3c(c2C1)C(=O)CCC3 (configuration not stated)	> 100	23.8	> 100	36.3	> 100	> 100	> 100	26.1	37.9	> 100
COc1ccc(N=NC(=Nc2ccc(F)cc2)c2ccc(N(CCC#N)CCC#N)cc2)cc1	> 100	> 100	52	> 100	> 100	> 100	> 100	> 100	44.9	> 100
COC(=O)c1cc2c(cc1CC(Cc1ccc3c(c1)CCC3)C(=O)OC)CCC2 (configuration not stated)	> 100	> 100	> 100	> 100	> 100	> 100	> 100	> 100	> 100	> 100
CCCOC(=O)NC(C)C(=O)NC(CCC(=O)NC(CCCC(N)C(=O)O)C(=O)NC(C)C(=O)O)C(=O)O (configuration not stated)	> 100	> 100	> 100	40.6	41.7	> 100	> 100	44.6	27.4	33.9
O=C(O)c1ccc2c(c1)CC1(C2)Cc2cc3c(cc2C1=O)CCC3 (configuration not stated)	> 100	> 100	> 100	> 100	> 100	> 100	> 100	> 100	> 100	> 100
CCOC(=O)C1CN(C2CC2)CCC1=O (configuration not stated)	> 100	> 100	> 100	> 100	> 100	> 100	> 100	> 100	> 100	> 100
CC12CC1C(c1cccc([N+](=O)[O-])c1)(c1cccc([N+](=O)[O-])c1)N=N2 (configuration not stated)	> 100	> 100	> 100	> 100	> 100	> 100	> 100	50.5	47.3	74.4
CCc1nc2cc3cccnc3c(Cl)c2[nH]c1=O	> 100	> 100	> 100	> 100	> 100	> 100	> 100	> 100	> 100	> 100
Cc1ccc(S(=O)(=O)NC(=O)NNc2ccc(F)cc2)cc1	> 100	> 100	> 100	> 100	> 100	> 100	> 100	> 100	> 100	> 100
COc1ccc(N=Nc2c3c(c(O)c4ccccc24)CCC(C)(C)O3)cc1	54.1	32.4	29.8	39.3	25.2	65.8	52.9	30.6	29.5	> 100
COC(=O)[C@H](C)NC(=O)[C@H](CSC)N1C(=O)N[C@@H](C(C)C)C1=O	> 100	> 100	> 100	> 100	> 100	> 100	> 100	> 100	> 100	> 100
COc1ccc(N=C2C(=S)N(c3ccc(OC)cc3)/C(=N/S(=O)(=O)c3ccccc3)N2c2ccccc2)cc1	31.8	20.6	> 73.2	12.2	7.6	28.3	> 57	8.81	34.6	5.47
CCCCN(CCCC)C(=C(C(Cl)=C(Cl)Cl)[N+](=O)[O-])N(CCCC)CCCC	> 100	> 100	> 100	> 100	> 100	> 100	> 100	> 100	> 100	
OC1(c2ccc(Cl)cc2)c2ccc(CN3CCCC3)cc2C2=NCCN21 (configuration not stated)	32.7	23.5	29.1	12.8	38.5	17.4	29.2	22.8	27.6	29.9
COC(=O)c1cc(C)ccc1CC(Cc1ccc(C)cc1)C(=O)OC (configuration not stated)	> 100	> 100	> 100	> 100	> 100	> 100	> 100	> 100	> 100	> 100
COc1cc(C=C2C(=O)NC(=S)NC2=O)cc(OC)c1OC	> 100	> 100	> 100	> 100	> 100	> 100	> 100	> 100	> 100	> 100

Compound	TGI (EKVX NSCLC) [µM]	TGI (MDA-MB-435) [µM]	TGI (NCI-H460 lung) [µM]	TGI (M14 melanoma) [µM]	TGI (T-47D breast) [µM]	TGI (TK-10 renal) [µM]	TGI (HOP-62 NSCLC) [µM]	TGI (MDA-N) [µM]	TGI (KM12 colon) [µM]	TGI (OVCAR-8 ovarian) [µM]
COP(=O)(OC)C12CCOCCN1c1ccccc1C2=O (configuration not stated)	> 100	> 100	> 100	> 100	> 100	> 100	> 100	> 100	> 100	> 100
COC(=O)C1=C(O)C(C(=O)OC)[C@@]2(O)[C@@H](C(=O)OC)[C@H](C)[C@@H](C)[C@@H]1[C@@H]2C(=O)OC (some centres not stated)	> 100	39.2	> 100	> 100	> 100	> 100	> 100	50.1	> 100	
Cc1cc(/N=C/c2ccc(C#N)cc2)n(-c2ccccc2)n1	> 100	> 100	> 100	> 100	> 100	> 100	> 100	> 100	> 100	> 100
CCOC(=O)[C@@H]1ON2O[C@@H](OC3CCCC3(c3ccccc3)c3ccccc3)C[C@H]3OC(=O)[C@@H]1C32 (some centres not stated)	> 100	34.2	> 100	51.9	69.1	43.6	> 100	67.6	29	> 100
CC(C)(C)c1ccc(OCC(=O)O)c(Cl)c1	> 100	> 100	> 100	> 100	> 100	> 100	> 100	> 100	> 100	> 100
c1ccc(C2=Nn3c(CCCCCCCCc4nnc5n4N=C(c4ccccc4)CS5)nnc3SC2)cc1	> 100	> 100	> 100	> 100	> 100	79	44	> 100	> 100	> 100
COC(=O)[C@H](Cc1ccccc1)NC(=O)c1ccc(CNC(=O)/C=C/c2cccc(Oc3ccccc3)c2)cc1	> 100	28.3	> 100	30.8	> 100	92.5	> 100	15.3	> 100	> 100
O/C(=C\c1nc2ccccc2nc1NC12CC3CC(CC(C3)C1)C2)c1ccc(Br)cc1	> 10	> 10	> 10	> 10	> 10	> 10	> 10	> 10	> 10	> 10
COC(=O)C1(Cc2ccc3c(c2)CCC3)Cc2cc3c(cc2C1)CCC3	> 100	> 100	> 100	> 100	60.7	> 100	> 100	> 100	> 100	> 100
COc1cc(OCc2ccc3nc(OC)c(OC)nc3c2)cc(OC)c1OC	> 10	> 10	> 10	> 10	> 10	> 10	> 10	> 10	> 10	> 10
COc1cc2c(cc1OC)C13CC[N+]4(C)CC5=CCOC6CC(=O)N2C1C6C5CC34[O-] (configuration not stated)	> 100	> 100	> 100	> 100	> 100	> 100	> 100	> 100	> 100	> 100
Cc1cc2nc(-c3cc(C(C)(C)C)c(O)c(C(C)(C)C)c3)[nH]c2cc1C	> 100	> 100	> 100	> 100	> 100	> 100	> 100	> 44.5	> 28.8	> 52.8
COC(=O)C1(Cc2ccc3c(c2)CCC3)Cc2ccccc2C1=O (configuration not stated)	73.7	18	93.6	32.4	> 100	55.9	59.3	13.3	20.3	> 100
O=C1CC(Sc2nc3ccc(I)cc3c(=O)n2Cc2ccccc2)C(=O)NN1 (configuration not stated)	31.8	33.9	57.2	39.8	34.3	30.5	35.1	33.4	38.8	28.4
Nc1nc(Nc2ccc(Cl)cc2)sc1C(=O)c1cccs1	69.7	> 100	> 100	> 100	> 100	36.3	53.6	> 100	> 100	
